These results are taken from PubChem BioAssay (NCI).

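Compound exposure: 48 hours, 5 concentrations, 96-well plates. GI50 is the concentration that inhibits growth by half. TGI: total growth inhibition.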

For this assay, the system named is MDA-MB-468 breast. Description: growth of human tumour cells (NCI), 48 h.
Turning to `Brc1ccc2[nH]cc(-c3nc(-c4c[nH]c5ccncc45)cs3)c2c1`, the GI50 is 1.77 µM and the TGI was determined as 3.45 µM.
In the case of `NC(=O)c1ccc(-c2c3ccccc3cc3c2ccc2ccccc23)cc1`, the GI50 is 1.34 µM and the TGI worked out at 6.97 µM.
For the compound `Cn1cc(/C=C2\C(=O)Nc3cccnc32)c2ccccc21`, the GI50 is 12 µM and the TGI was greater than 25 µM.
On to `Fc1ccc(-c2c(-c3ccncc3)n(CCN3CCOCC3)c3cccnc23)cc1`, for which the GI50 is greater than 25 µM and the TGI is greater than 25 µM.
Turning to `COCCn1cc(-c2csc(-c3c[nH]c4ccc(F)cc34)n2)c2cccnc21`, the GI50 is 2.44 µM and the TGI is 8.51 µM.
Regarding `COc1ccccc1OCC(O)CO` (stereo not drawn), the GI50 is greater than 100 µM and the TGI is greater than 100 µM.
`CCc1ccc(/C=C2/SC(=S)NC2=O)cc1`: the GI50 is 20.3 µM and the TGI was determined as 69.4 µM.
With `Fc1cc(Nc2ccc3c(OCCCN4CCOCC4)cccc3n2)ccc1Cl`, the GI50 is 2.08 µM and the TGI stood at 4.43 µM.
For the compound `N#CC(C#N)=C/C=C/c1cccc([N+](=O)[O-])c1`, the GI50 is 0.767 µM and the TGI was determined as 2.28 µM.
The matching figures for `CCOc1ccc(N2C(N)=NC(N)=NC2(C)C)cc1`: 20.8 µM and greater than 100 µM.
Take `CCN(CC)c1ccc(/C=N\NC(=O)c2cccc(Nc3ccnc(C(F)(F)F)c3)c2)c(O)c1`: the GI50 was 0.239 µM and the TGI is 3.51 µM.
The matching figures for `Cc1cc(C#Cc2ccccc2)ccc1-n1c(/C=C/c2ccc(O)cc2)nc2ccccc2c1=O`: 3.78 µM and greater than 100 µM.
The matching figures for `CCNC1=CC(=O)c2ncccc2C1=O`: 2.11 µM and 7.55 µM.
Take `CCn1cc(C2NC(=O)c3cc(F)ccc3N2)c2cccc(Cl)c21` (stereo not drawn): the GI50 was 0.292 µM and the TGI is 6.13 µM.
Take `COc1cc(SC)ccc1C(=O)N1CCCC(C)C1` (stereo not drawn): the GI50 is 26.1 µM and the TGI is greater than 100 µM.
`O=C(O)CCN1C(=O)/C(=C/C(Cl)=C/c2ccccc2)SC1=S`: the GI50 was 1.2 µM and the TGI came to 2.98 µM.
As to `CN1C=CN(Cc2ccc(-c3ccccn3)nc2)[CH-]1.CN1C=CN(Cc2ccc(-c3ccccn3)nc2)[CH-]1.[Au+3]`, the GI50 is 0.337 µM and the TGI is 2.53 µM.
`NC(=NC1C2CC3CC(C2)CC1C3)Nc1ccc(I)cc1` (stereo not drawn): the GI50 is 1.96 µM and the TGI is 4.68 µM.
Take `Cc1ccc(Nc2ccnc(Nc3cccc(C(N)=O)c3)n2)cc1O`: the GI50 was 2.62 µM and the TGI amounted to 9.56 µM.
Consider `O=C(N/N=C\c1cc(Cl)ccc1O)N/N=C/c1cc(Cl)ccc1O`, for which the GI50 was 2.58 µM and the TGI was greater than 100 µM.
The matching figures for `CC(C)=CCC[C@](C)(O)[C@H]1CC[C@]2(C)[C@@H]1CC[C@@H]1[C@@]3(C)CC[C@H](OC(=O)CCC(=O)O)C(C)(C)[C@@H]3CC[C@]12C`: 22.3 µM and 96.1 µM.
With `O=C(/C=C/c1cccs1)Nc1ncc(Cc2ccccc2F)s1`, the GI50 is 0.364 µM and the TGI was greater than 100 µM.
In the case of `COc1cc(C(=O)c2c(-c3ccccc3)oc3ccccc23)cc(OC)c1O`, the GI50 is 0.362 µM and the TGI turned out to be 3.48 µM.
As for `COc1cc(Nc2ncc(-c3ccccc3)o2)cc(OC)c1OC`, the GI50 was 0.0744 µM and the TGI was determined as 1.1 µM.
The matching figures for `O=c1c2c(=NCCCN3CCCC3)cc3c(=O)n(CCCN4CCCC4)c(=O)c4c(NCCCN5CCCC5)cc(c(O)n1CCCN1CCCC1)c2c4-3`: 1.74 µM and 4.68 µM.
For the compound `O=C(Nc1ccc(-c2nc3ccc(NC(=O)c4ccc(Cl)cc4)cc3[nH]2)cc1)c1ccc(Cl)cc1`, the GI50 was 2.58 µM and the TGI is 8.45 µM.
Regarding `C=C(C)[C@@H]1CC[C@]2(C#N)CC[C@]3(C)[C@H](CC[C@@H]4[C@@]5(C)CCCNC(C)(C)[C@@H]5CC[C@]43C)[C@@H]12`, the GI50 is 1.75 µM and the TGI came to 3.21 µM.
The matching figures for `COc1cc([N+](=O)[O-])c2ncccc2c1O`: 35.6 µM and greater than 100 µM.
Regarding `O=C(O)c1c(Cl)c(Cl)c(Cl)c(Cl)c1-c1c2cc(I)c(=O)c(I)c-2oc2c(I)c(O)c(I)cc12`, the GI50 was 36.9 µM and the TGI came to 76.2 µM.
